Experimental data reported in patent publication US11612592B2, “Liquid formulations containing picosulfate and magnesium citrate” (FERRING B.V., priority 2015, dated 2023).
Entries after “also recorded” stand apart in the source; their conditions may differ.

Tests used:
[1] = Freeze-thaw cycle accelerated method for predicting precipitation (height of precipitate in tube); assay type: physicochemical; conditions: for Effectiveness as precipitation inhibitor compared with malic acid: 31 mmol in 150 mL (210 mM); for Effectiveness to inhibit precipitation: 63 mmol in 150 mL (420 mM), five freeze-thaw cycles
Description: A picosulfate formulation containing sodium picosulfate (10 mg), magnesium oxide (3.5 g), citric acid (12 g), and KHCO3 (0.65 g) and, optionally, a precipitation inhibitor (or combination of inhibitors) to be tested, dissolved in water (150 mL) is prepared. The pH is adjusted to the range 4.7-5.1 using aq. NaOH and aq. HCl solutions. The solution is filtered through a 0.22 μm PTFE filter under vacuum.
Two portions of 10 mL of the formulation test solution are placed in tapered, graduated, centrifuge tubes (15 mL) and subjected to five freeze-thaw cycles in which the solutions are frozen at −20° C. for at least 12 h and then thawed at 20-25° C. for 8 h. At the end of each cycle, the tube is inspected for precipitation at the bottom of the tube. If precipitation is present, the amount of precipitate is quantitated by measuring the height (in mm) of the precipitate in the centrifuge tube using a ruler.
The amount of precipitate (if any) is quantitated by measuring the height (in mm) of the precipitate in the centrifuge tube using a ruler at the end of each freeze thaw cycle.
If a polymer is included in the formulation, the polymer (75-150 mg) is dissolved in water (150 mL) until a clear solution (containing the polymer at a concentration of […]) is formed. A sachet of PREPOPIK® sodium picosulfate/magnesium citrate granules (containing sodium picosulfate (10 mg), magnesium oxide (3.5 g), citric acid (12 g), KHCO3 (0.65 g), Na-saccharin and orange flavoring) is added. A carboxylic acid (31-63 mmol) is added, and the pH is adjusted to the range 4.7-5.1 using aq. NaOH and aq. HCl solutions. The solution is filtered through a 0.22 μm PTFE filter under vacuum.

[2] = Time to precipitation on storage under ambient conditions (20-25 °C); assay type: physicochemical; conditions: Table 3 data; 0.42 M
Description: A liquid formulation containing sodium picosulfate and magnesium citrate was prepared by dissolving a sachet of commercially available PREPOPIK® containing sodium picosulfate (10 mg), magnesium oxide (3.5 g), citric acid (12 g), KHCO3 (0.65 g), and orange or berry flavoring in water (150 mL). The solution is stored under ambient conditions and observed periodically until precipitation from the solution is noted.
A liquid formulation containing sodium picosulfate and magnesium citrate stabilized with malic acid was prepared using the ingredients listed in Table 1. The solution is stored under ambient conditions and observed periodically for precipitation from the solution. No precipitation is observed within 340 days.
As a reference, commercially available sodium picosulfate/magnesium oxide/citric acid (PICOSOLUTION™, Pharmbio Co., Ltd.) is also stored under ambient conditions and observed periodically for precipitation from the solution. No precipitation is observed within 645 days.
The remainder of the formulation test solution may be stored at ambient temperature (e.g., 20-25° C.) to determine the stability under non-accelerated conditions.
Samples of each of the solutions are also stored at ambient temperature (20-25° C.) and monitored for the appearance of precipitation. […]

Row | Concentration of malic acid needed for prolonged stability [2] | SMILES | Effectiveness as precipitation inhibitor compared with malic acid [1] | Effectiveness to inhibit precipitation [1]
1 | – | O=C(O)CC(=O)O [malonic acid] | more effective as a precipitation inhibitor than malic acid | very effective; also recorded: effective to inhibit precipitation
2 | – | O=C(O)C(O)C(O)C(=O)O (stereo not drawn) [tartaric acid] | of comparable effectiveness | very effective; also recorded: effective to inhibit precipitation
3 | ≥ 63 mmol per 150 mL | O=C(O)CC(O)C(=O)O (stereo not drawn) [malic acid] | – | very effective; also recorded: effective to inhibit precipitation
